In patent US9326506B2, “Preparation method, agricultural composition and applications of natural brassinolide analogs” (CHENGDU NEWSUN CROPSCIENCE CO., LTD, priority 2012, dated 2016):

Tested on: rice
Test: Low temperature assay on rice seedlings
Type: in vivo
Experimental: According to a low temperature assay, we measured parameters including plant height, number of leaf, area of leaf, number of tiller, weight of root at low temperature to completely determine effects of the natural brassinolide analogues on the resistance to low temperature of a plant.
The natural brassinolide analogues, BR1, BR2, BR3, BR4, BR5 and BR6, used herein, were those prepared by the method of Example 1. Respectively the analogues were dissolved into 95% (V/V) ethanol solution, and then diluted with pure water to 1 mg/L, 0.1 mg/L, 0.01 mg/L, 0.001 mg/L and 0.0001 mg/L. In addition, pure water was used as a control.
After rice seeds were disinfected by using 5% sodium hypochlorite solution treatment, they were rinsed with distilled water until their pH>7, placed into a petri dish in a dark incubator, and cultured by using water at 30° C.±2° C. for 9 days. Then respectively the nine-day-old etiolated seedlings of rice were immersed in the above solutions containing different concentrations of the natural brassinolide analogues or pure water, and cultured at the temperature of 1° C., 2° C., 3° C., 4° C. and 5° C. for 24 hr. The parameters including plant height, area of leaf and weight of root after 3, 6, 9 and 12 days and number of leaf and number of tiller after 12 days were measured.

CC(C)[C@H](C)[C@@H](O)[C@H](O)[C@@H](C)[C@H]1CCC2C3CC(=O)C4C[C@H](O)CC[C@]4(C)C3CC[C@@]21C (stereo partly shown) [BR4]
Height (0.01 mg/l, 3 °C, 9 days): 7.5 cm
Weight of root (0.01 mg/l, 3 °C, 9 days): 2.9 g
Area of leaf (0.01 mg/l, 3 °C, 12 days): 13.2 cm^2
Height (0.01 mg/l, 3 °C, 12 days): 7.8 cm
Number of leaf (0.01 mg/l, 3 °C, 12 days): 3
Number of tiller (0.01 mg/l, 3 °C, 12 days): 2
Weight of root (0.01 mg/l, 3 °C, 12 days): 2.9 g
Area of leaf (0.01 mg/l, 4 °C, 3 days): 10.8 cm^2
Height (0.01 mg/l, 4 °C, 3 days): 7 cm
Weight of root (0.01 mg/l, 4 °C, 3 days): 2.5 g
Area of leaf (0.01 mg/l, 4 °C, 6 days): 12.4 cm^2
Height (0.01 mg/l, 4 °C, 6 days): 7.4 cm
Weight of root (0.01 mg/l, 4 °C, 6 days): 2.7 g
Area of leaf (0.01 mg/l, 4 °C, 9 days): 13 cm^2
Height (0.01 mg/l, 4 °C, 9 days): 7.7 cm
Weight of root (0.01 mg/l, 4 °C, 9 days): 2.9 g
Area of leaf (0.01 mg/l, 4 °C, 12 days): 13.5 cm^2
Height (0.01 mg/l, 4 °C, 12 days): 7.8 cm
Number of leaf (0.01 mg/l, 4 °C, 12 days): 3
Number of tiller (0.01 mg/l, 4 °C, 12 days): 2
Weight of root (0.01 mg/l, 4 °C, 12 days): 3.0 g
Area of leaf (0.01 mg/l, 5 °C, 3 days): 10.3 cm^2
Height (0.01 mg/l, 5 °C, 3 days): 7.2 cm
Weight of root (0.01 mg/l, 5 °C, 3 days): 2.8 g
Area of leaf (0.01 mg/l, 5 °C, 6 days): 13.1 cm^2
Height (0.01 mg/l, 5 °C, 6 days): 7.4 cm
Weight of root (0.01 mg/l, 5 °C, 6 days): 3.0 g
Area of leaf (0.01 mg/l, 5 °C, 9 days): 16.4 cm^2
Height (0.01 mg/l, 5 °C, 9 days): 7.8 cm
Weight of root (0.01 mg/l, 5 °C, 9 days): 3.4 g
Area of leaf (0.01 mg/l, 5 °C, 12 days): 17 cm^2
Height (0.01 mg/l, 5 °C, 12 days): 8.2 cm
Number of leaf (0.01 mg/l, 5 °C, 12 days): 4
Number of tiller (0.01 mg/l, 5 °C, 12 days): 3
Weight of root (0.01 mg/l, 5 °C, 12 days): 3.9 g
Area of leaf (0.1 mg/l, 1 °C, 3 days): 10 cm^2
Height (0.1 mg/l, 1 °C, 3 days): 7.1 cm
Weight of root (0.1 mg/l, 1 °C, 3 days): 2.8 g
Area of leaf (0.1 mg/l, 1 °C, 6 days): 11 cm^2
Height (0.1 mg/l, 1 °C, 6 days): 7.2 cm
Weight of root (0.1 mg/l, 1 °C, 6 days): 2.9 g
Area of leaf (0.1 mg/l, 1 °C, 9 days): 12.1 cm^2
Height (0.1 mg/l, 1 °C, 9 days): 7.3 cm
Weight of root (0.1 mg/l, 1 °C, 9 days): 3.3 g
Area of leaf (0.1 mg/l, 1 °C, 12 days): 13.1 cm^2
Height (0.1 mg/l, 1 °C, 12 days): 7.3 cm
Number of leaf (0.1 mg/l, 1 °C, 12 days): 3
Number of tiller (0.1 mg/l, 1 °C, 12 days): 3
Weight of root (0.1 mg/l, 1 °C, 12 days): 3.6 g
Area of leaf (0.1 mg/l, 2 °C, 3 days): 10.2 cm^2
Height (0.1 mg/l, 2 °C, 3 days): 7.1 cm
Weight of root (0.1 mg/l, 2 °C, 3 days): 2.8 g
Area of leaf (0.1 mg/l, 2 °C, 6 days): 11.2 cm^2
Height (0.1 mg/l, 2 °C, 6 days): 7.1 cm
Weight of root (0.1 mg/l, 2 °C, 6 days): 3.1 g
Area of leaf (0.1 mg/l, 2 °C, 9 days): 12.6 cm^2
Height (0.1 mg/l, 2 °C, 9 days): 7.3 cm
Weight of root (0.1 mg/l, 2 °C, 9 days): 3.1 g
Area of leaf (0.1 mg/l, 2 °C, 12 days): 13.2 cm^2
Height (0.1 mg/l, 2 °C, 12 days): 7.4 cm
Number of leaf (0.1 mg/l, 2 °C, 12 days): 3
Number of tiller (0.1 mg/l, 2 °C, 12 days): 3
Weight of root (0.1 mg/l, 2 °C, 12 days): 3.2 g
Area of leaf (0.1 mg/l, 3 °C, 3 days): 10.5 cm^2
Height (0.1 mg/l, 3 °C, 3 days): 7.3 cm
Weight of root (0.1 mg/l, 3 °C, 3 days): 2.5 g
Area of leaf (0.1 mg/l, 3 °C, 6 days): 12 cm^2
Height (0.1 mg/l, 3 °C, 6 days): 7.4 cm
Weight of root (0.1 mg/l, 3 °C, 6 days): 2.7 g
Area of leaf (0.1 mg/l, 3 °C, 9 days): 12.1 cm^2
Height (0.1 mg/l, 3 °C, 9 days): 7.8 cm
Weight of root (0.1 mg/l, 3 °C, 9 days): 2.7 g
Area of leaf (0.1 mg/l, 3 °C, 12 days): 13.4 cm^2
Height (0.1 mg/l, 3 °C, 12 days): 7.9 cm
Number of leaf (0.1 mg/l, 3 °C, 12 days): 3
Number of tiller (0.1 mg/l, 3 °C, 12 days): 2
Weight of root (0.1 mg/l, 3 °C, 12 days): 2.9 g
Area of leaf (0.1 mg/l, 4 °C, 3 days): 10.6 cm^2
Height (0.1 mg/l, 4 °C, 3 days): 7.3 cm
Weight of root (0.1 mg/l, 4 °C, 3 days): 2.5 g
Area of leaf (0.1 mg/l, 4 °C, 6 days): 12 cm^2
Height (0.1 mg/l, 4 °C, 6 days): 7.4 cm
Weight of root (0.1 mg/l, 4 °C, 6 days): 2.6 g
Area of leaf (0.1 mg/l, 4 °C, 9 days): 13.2 cm^2
Height (0.1 mg/l, 4 °C, 9 days): 7.8 cm
Weight of root (0.1 mg/l, 4 °C, 9 days): 2.9 g
Area of leaf (0.1 mg/l, 4 °C, 12 days): 13.4 cm^2
Height (0.1 mg/l, 4 °C, 12 days): 8 cm
Number of leaf (0.1 mg/l, 4 °C, 12 days): 3
Number of tiller (0.1 mg/l, 4 °C, 12 days): 2
Weight of root (0.1 mg/l, 4 °C, 12 days): 3.1 g
Area of leaf (0.1 mg/l, 5 °C, 3 days): 11 cm^2
Height (0.1 mg/l, 5 °C, 3 days): 7.4 cm
Weight of root (0.1 mg/l, 5 °C, 3 days): 2.9 g
Area of leaf (0.1 mg/l, 5 °C, 6 days): 12.1 cm^2
Height (0.1 mg/l, 5 °C, 6 days): 7.5 cm
Weight of root (0.1 mg/l, 5 °C, 6 days): 3.1 g
Area of leaf (0.1 mg/l, 5 °C, 9 days): 16.2 cm^2
Height (0.1 mg/l, 5 °C, 9 days): 8 cm
Weight of root (0.1 mg/l, 5 °C, 9 days): 3.5 g
Area of leaf (0.1 mg/l, 5 °C, 12 days): 17.8 cm^2
Height (0.1 mg/l, 5 °C, 12 days): 8.1 cm
Number of leaf (0.1 mg/l, 5 °C, 12 days): 3
Number of tiller (0.1 mg/l, 5 °C, 12 days): 2
Weight of root (0.1 mg/l, 5 °C, 12 days): 4.1 g
Area of leaf (1 mg/l, 1 °C, 3 days): 10 cm^2
Height (1 mg/l, 1 °C, 3 days): 6.8 cm
Weight of root (1 mg/l, 1 °C, 3 days): 2.6 g
Area of leaf (1 mg/l, 1 °C, 6 days): 11 cm^2
Height (1 mg/l, 1 °C, 6 days): 7 cm
Weight of root (1 mg/l, 1 °C, 6 days): 3.1 g
Area of leaf (1 mg/l, 1 °C, 9 days): 12.4 cm^2
Height (1 mg/l, 1 °C, 9 days): 7.1 cm
Weight of root (1 mg/l, 1 °C, 9 days): 3.2 g
Area of leaf (1 mg/l, 1 °C, 12 days): 13 cm^2
Height (1 mg/l, 1 °C, 12 days): 7.7 cm
Number of leaf (1 mg/l, 1 °C, 12 days): 3
Number of tiller (1 mg/l, 1 °C, 12 days): 3
Weight of root (1 mg/l, 1 °C, 12 days): 3.7 g
Area of leaf (1 mg/l, 2 °C, 3 days): 10.1 cm^2
Height (1 mg/l, 2 °C, 3 days): 7 cm
Weight of root (1 mg/l, 2 °C, 3 days): 2.55 g
Area of leaf (1 mg/l, 2 °C, 6 days): 11.7 cm^2
Height (1 mg/l, 2 °C, 6 days): 7.2 cm
Weight of root (1 mg/l, 2 °C, 6 days): 3.0 g
Area of leaf (1 mg/l, 2 °C, 9 days): 12 cm^2
Height (1 mg/l, 2 °C, 9 days): 7.4 cm
Weight of root (1 mg/l, 2 °C, 9 days): 3.2 g
Area of leaf (1 mg/l, 2 °C, 12 days): 13 cm^2
Height (1 mg/l, 2 °C, 12 days): 8 cm
Number of leaf (1 mg/l, 2 °C, 12 days): 3
Number of tiller (1 mg/l, 2 °C, 12 days): 3
Weight of root (1 mg/l, 2 °C, 12 days): 3.7 g
Area of leaf (1 mg/l, 3 °C, 3 days): 10.4 cm^2
Height (1 mg/l, 3 °C, 3 days): 7 cm
Weight of root (1 mg/l, 3 °C, 3 days): 2.5 g
Area of leaf (1 mg/l, 3 °C, 6 days): 12 cm^2
Height (1 mg/l, 3 °C, 6 days): 7.5 cm
Weight of root (1 mg/l, 3 °C, 6 days): 2.6 g
Area of leaf (1 mg/l, 3 °C, 9 days): 12 cm^2
Height (1 mg/l, 3 °C, 9 days): 7.7 cm
Weight of root (1 mg/l, 3 °C, 9 days): 2.6 g
Area of leaf (1 mg/l, 3 °C, 12 days): 13.2 cm^2
Height (1 mg/l, 3 °C, 12 days): 8.1 cm
Number of leaf (1 mg/l, 3 °C, 12 days): 3
Number of tiller (1 mg/l, 3 °C, 12 days): 2
Weight of root (1 mg/l, 3 °C, 12 days): 2.9 g
Area of leaf (1 mg/l, 4 °C, 3 days): 10.7 cm^2
Height (1 mg/l, 4 °C, 3 days): 7.3 cm
Weight of root (1 mg/l, 4 °C, 3 days): 2.5 g
Area of leaf (1 mg/l, 4 °C, 6 days): 12 cm^2
Height (1 mg/l, 4 °C, 6 days): 7.5 cm
Weight of root (1 mg/l, 4 °C, 6 days): 2.7 g
Area of leaf (1 mg/l, 4 °C, 9 days): 13.2 cm^2
Height (1 mg/l, 4 °C, 9 days): 7.8 cm
Weight of root (1 mg/l, 4 °C, 9 days): 3.0 g
Area of leaf (1 mg/l, 4 °C, 12 days): 14 cm^2
Height (1 mg/l, 4 °C, 12 days): 8.2 cm
Number of leaf (1 mg/l, 4 °C, 12 days): 3
Number of tiller (1 mg/l, 4 °C, 12 days): 2
Weight of root (1 mg/l, 4 °C, 12 days): 3.2 g
Area of leaf (1 mg/l, 5 °C, 3 days): 11.1 cm^2
Height (1 mg/l, 5 °C, 3 days): 7.4 cm
Weight of root (1 mg/l, 5 °C, 3 days): 2.9 g
Area of leaf (1 mg/l, 5 °C, 6 days): 13 cm^2
Height (1 mg/l, 5 °C, 6 days): 7.4 cm
Weight of root (1 mg/l, 5 °C, 6 days): 3.5 g
Area of leaf (1 mg/l, 5 °C, 9 days): 18 cm^2
Height (1 mg/l, 5 °C, 9 days): 8.1 cm
Weight of root (1 mg/l, 5 °C, 9 days): 3.7 g
Area of leaf (1 mg/l, 5 °C, 12 days): 20 cm^2
Height (1 mg/l, 5 °C, 12 days): 8.3 cm
Number of leaf (1 mg/l, 5 °C, 12 days): 3
Number of tiller (1 mg/l, 5 °C, 12 days): 2
Weight of root (1 mg/l, 5 °C, 12 days): 4.5 g
